The results in this text go back to the NIST ThermoML archive (doi:10.1021/je700190m).

± gives the expanded uncertainty stated by the source.

The nature of the series: wn = mass fraction of the nth substance listed. The conditions noted are these: 310 K; 101.3 kPa; Liquid; Concentric cylinders viscometry; w1 = 0.1.
Usually viscosity stands for the resistance of a fluid to flow. As for `OC[C@@H](O)[C@@H](O[C@H]1O[C@H](CO)[C@@H](O)[C@H](O)[C@H]1O)[C@H](O)[C@@H](O)CO` [4-O-α-D-glucopyranosyl-D-glucitol] + O, the viscosity came out at 1.08 ± 0.22 mPa·s.
The result for `O=C[C@H](O)[C@@H](O)[C@H](O[C@@H]1O[C@H](CO)[C@H](O)[C@H](O)[C@H]1O)[C@H](O)CO` [4-O-β-D-galactopyranosyl-D-glucose] + O reads 1.16 ± 0.23 mPa·s; that for `O.O.OC[C@H]1O[C@H](O[C@H]2O[C@H](CO)[C@@H](O)[C@H](O)[C@H]2O)[C@H](O)[C@@H](O)[C@@H]1O` [D-(+)-trehalose dihydrate] + O, 1.1 ± 0.22 mPa·s.
Regarding `O=C[C@H](O)[C@@H](O)[C@H](O)[C@H](O)CO` [D-glucose] + O, the viscosity is recorded as 1 ± 0.2 mPa·s.
In the case of `O.O.O.O.O.OC[C@H]1O[C@H](OC[C@H]2O[C@H](O[C@]3(CO)O[C@H](CO)[C@@H](O)[C@@H]3O)[C@H](O)[C@@H](O)[C@@H]2O)[C@H](O)[C@@H](O)[C@H]1O` [D-raffinose, pentahydrate] + O, the viscosity is reported as 1.22 ± 0.25 mPa·s.
Consider `OC[C@@H](O)[C@@H](O)[C@H](O)[C@@H](O)CO` [D-sorbitol] + O, for which the viscosity worked out at 1.02 ± 0.21 mPa·s.
In the case of `OC[C@H]1O[C@@](CO)(O[C@H]2O[C@H](CO)[C@@H](O)[C@H](O)[C@H]2O)[C@@H](O)[C@@H]1O` [D-sucrose] + O it was 1.06 ± 0.21 mPa·s.
Turning to `O=C(CO)[C@@H](O)[C@H](O)[C@@H](CO)O[C@H]1O[C@H](CO)[C@@H](O)[C@H](O)[C@H]1O` [leucrose] + O, the viscosity came out at 1.05 ± 0.21 mPa·s.
The result for `OC[C@@H](O)[C@@H](O)[C@H](O)[C@H](O)CO` [mannitol] + O reads 1.03 ± 0.21 mPa·s; that for `OC[C@@H](O)[C@H](O)[C@@H](O)CO` [xylitol] + O, 1.03 ± 0.21 mPa·s.
